How the values were obtained:
[1] = molecular target: T1, Photoreceptor-specific nuclear receptor (Homo sapiens, UniProt Q9Y5X4); test: Agonist activity at NR2E3 by luciferase NCOR release assay in CHO cells; format: functional, cell-based
[2] = molecular target: T1, Photoreceptor-specific nuclear receptor; test: Agonist activity at NR2E3 by beta lactamase transactivation assay; format: functional

T1 sequence (Q9Y5X4 whole entry): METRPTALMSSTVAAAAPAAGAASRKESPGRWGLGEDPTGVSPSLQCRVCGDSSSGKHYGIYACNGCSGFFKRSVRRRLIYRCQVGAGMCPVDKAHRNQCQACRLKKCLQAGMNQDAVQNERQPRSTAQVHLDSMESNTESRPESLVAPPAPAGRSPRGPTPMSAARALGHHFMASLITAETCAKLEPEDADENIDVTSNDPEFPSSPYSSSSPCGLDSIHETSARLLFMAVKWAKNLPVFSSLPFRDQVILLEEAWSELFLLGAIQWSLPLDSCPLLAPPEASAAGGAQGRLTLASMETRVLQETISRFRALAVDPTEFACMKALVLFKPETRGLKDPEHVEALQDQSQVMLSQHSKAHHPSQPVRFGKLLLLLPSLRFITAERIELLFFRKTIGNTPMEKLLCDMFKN

| EC50 [1] [nM] | EC50 [2] [nM] | Compound |
| --- | --- | --- |
| 260 | 720 | O=C(Nc1ccc(-c2nc3cc(NC(=O)[C@@H]4C[C@H]4F)ccc3[nH]2)cc1)c1ccccc1Cl |
| 147 | 316 | CC(C)C(=O)Nc1ccc2nc(-c3ccc(NC(=O)c4ccccc4Cl)cc3)[nH]c2c1 |
| 330 | 260 | Cc1ccccc1C(=O)Nc1ccc(-c2nc3ccc(NC(=O)c4ccccc4Cl)cc3[nH]2)cc1 |
| 2610 | 6270 | CC(C)(C)C(=O)Nc1ccc2nc(-c3ccc(NC(=O)c4ccccc4Cl)cc3)[nH]c2c1 |
| 986 | 1330 | O=C(Nc1ccc(-c2nc3cc(NC(=O)C4CCC4)ccc3[nH]2)cc1)c1ccccc1Cl |
| 3000 | 2100 | O=C(Nc1ccc(-c2nc3cc(NC(=O)C4CC4(F)F)ccc3[nH]2)cc1)c1ccccc1Cl (stereo unspecified) |
| 370 | > 25000 | O=C(Nc1ccc(-c2nc3cc(NC(=O)C4(c5ccccc5)CC4)ccc3[nH]2)cc1)c1ccccc1Cl |
| 7200 | > 25000 | O=C(Nc1ccc2[nH]c(-c3ccc4c(c3)OCO4)nc2c1)c1ccccc1Cl |
| 10000 | 17000 | N#CC1(C(=O)Nc2ccc3[nH]c(-c4ccc(NC(=O)c5ccccc5Cl)cc4)nc3c2)CC1 |
| 610 | 270 | O=C(Nc1ccc(-c2nc3cc(NC(=O)c4ccccc4Cl)ccc3[nH]2)cc1)c1ccccc1 |
| 4100 | > 25000 | O=C(Nc1ccc2nc(-c3cnn(-c4ccc(F)cc4)c3)[nH]c2c1)c1ccccc1Cl |
| 2200 | 4800 | O=C(Nc1ccc2nc(-c3ccc(NC(=O)c4cccnc4Cl)cc3)[nH]c2c1)c1ccccc1Cl |
| 170 | 270 | O=C(Nc1ccc(-c2nc3cc(NC(=O)c4ccccc4Cl)ccc3[nH]2)cc1)c1ccccc1F |
| 2900 | 2500 | CC1(C(=O)Nc2ccc3nc(-c4ccc(NC(=O)c5ccccc5Cl)cc4)[nH]c3c2)CC1 |
| 4100 | 10000 | O=C(Nc1cccc(-c2nc3cc(NC(=O)c4ccccc4Cl)ccc3[nH]2)c1)c1ccccc1Cl |
| 35 | 141 | O=C(Nc1ccc(-c2nc3ccc(NC(=O)C4CC4)cc3[nH]2)cc1)c1ccccc1Cl |
| 4200 | > 25000 | O=C(Nc1ccc2nc(-c3cc(Cl)cc(Cl)c3O)[nH]c2c1)c1ccccc1Cl |
| 1320 | 3160 | O=C(Nc1ccc(-c2nc3ccc(NC(=O)C4CCCC4)cc3[nH]2)cc1)c1ccccc1Cl |
